Among the test systems are A498 renal; DU-145 prostate; HL-60(TB) leukemia; HOP-62 NSCLC; HOP-92 NSCLC; HS 578T breast; MDA-MB-231 breast; OVCAR-5 ovarian; OVCAR-8 ovarian; SK-MEL-28 melanoma.
Assay in all cases: DTP human tumour cell line panel, 48 h

Drawing on PubChem BioAssay (NCI), this text covers TGI for 14 compounds.

Molecules are shown by their SMILES.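 Five concentrations, 48 hours, 96-well plates. At the TGI there is no net growth.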

One may read the TGI as the concentration at which net growth stops. Lower therefore signals greater sensitivity of the cells.

For `CC(C)(C)c1cc(/C=C2/NC(=O)NC2=O)cc(C(C)(C)C)c1O`, the total growth inhibition concentration (TGI) turned out to be 27 µM with A498 renal; 30.3 µM in the assay with DU-145 prostate; 25.9 µM in the assay on HL-60(TB) leukemia; 33.1 µM in the assay with HOP-62 NSCLC; 27.9 µM in the assay on HOP-92 NSCLC; 36 µM in the assay with HS 578T breast. The TGI in the assay with MDA-MB-231 breast is 26.2 µM; in the assay with OVCAR-5 ovarian, 30.8 µM; in the assay on OVCAR-8 ovarian, 38.5 µM; in the assay on SK-MEL-28 melanoma it was 32 µM.

For `C#CCOCC12C=CC(O1)C1COC(=O)C12` (centres undefined), the TGI in the assay with A498 renal, with DU-145 prostate, in the assay on HL-60(TB) leukemia, in the assay with HOP-62 NSCLC, in the assay with HOP-92 NSCLC and in the assay on HS 578T breast was greater than 100 µM in each case. Besides, the TGI with MDA-MB-231 breast, with OVCAR-5 ovarian, in the assay with OVCAR-8 ovarian and with SK-MEL-28 melanoma was greater than 100 µM throughout.

Regarding `O=C(Sc1c(-c2ccccc2)c(=O)n(-c2ccccc2)c(=S)n1-c1ccccc1)c1ccco1`, the TGI was greater than 100 µM in the assay on A498 renal; greater than 100 µM in the assay with DU-145 prostate; 59.2 µM in the assay on HL-60(TB) leukemia; greater than 100 µM with HOP-62 NSCLC; greater than 92.6 µM in the assay on HOP-92 NSCLC; greater than 100 µM in the assay on HS 578T breast. In addition, the TGI in the assay on MDA-MB-231 breast, with OVCAR-5 ovarian, in the assay with OVCAR-8 ovarian and in the assay on SK-MEL-28 melanoma was greater than 100 µM throughout.

Turning to `COCC#C[C@@]1(O)CCCCC1CC(OC)OC` (some centres undefined), the total growth inhibition concentration (TGI) in the assay on A498 renal, in the assay with DU-145 prostate, in the assay with HL-60(TB) leukemia, with HOP-62 NSCLC, with HOP-92 NSCLC and in the assay on HS 578T breast was greater than 100 µM throughout. Besides, the TGI in the assay with MDA-MB-231 breast, in the assay with OVCAR-5 ovarian, in the assay on OVCAR-8 ovarian and with SK-MEL-28 melanoma was greater than 100 µM in each case.

As to `CC[N+]1(C)CCC(O)(c2ccc(C)cc2)C(C(=O)c2ccc(C)cc2)C1` (centres undefined), the total growth inhibition concentration (TGI) was greater than 100 µM in the assay with A498 renal; greater than 100 µM in the assay with DU-145 prostate; greater than 100 µM in the assay with HL-60(TB) leukemia; greater than 100 µM in the assay with HOP-62 NSCLC; 46.2 µM in the assay with HOP-92 NSCLC; greater than 100 µM in the assay on HS 578T breast. Besides, the concentration for total growth inhibition (TGI) is 62.3 µM in the assay with MDA-MB-231 breast, greater than 100 µM in the assay with OVCAR-5 ovarian and greater than 100 µM in the assay with OVCAR-8 ovarian.

Consider `CNC(=S)NNc1ncnc2c1c(-c1ccc(Cl)cc1)cn2-c1ccc(C)cc1`, for which the TGI is 49.6 µM in the assay with A498 renal; 43.4 µM with DU-145 prostate; greater than 100 µM with HL-60(TB) leukemia; 39.2 µM with HOP-62 NSCLC; 30.8 µM in the assay with HOP-92 NSCLC; 57.8 µM with HS 578T breast. Further, the concentration for total growth inhibition (TGI) was 21.7 µM in the assay with MDA-MB-231 breast, 29 µM with OVCAR-5 ovarian, 31.5 µM in the assay with OVCAR-8 ovarian and 25.2 µM in the assay on SK-MEL-28 melanoma.

`CCOc1ccc(N=Nc2ccc3cc(/C(C)=N/NC(=O)/C(C#N)=C\c4ccc(N(CCC#N)CCC#N)cc4)c(=O)oc3c2)cc1`: the TGI with A498 renal, in the assay with DU-145 prostate, in the assay with HL-60(TB) leukemia, in the assay on HOP-62 NSCLC, with HOP-92 NSCLC and with HS 578T breast was greater than 10 µM in each case. Besides, the TGI in the assay with MDA-MB-231 breast, in the assay with OVCAR-5 ovarian, in the assay with OVCAR-8 ovarian and with SK-MEL-28 melanoma was greater than 10 µM each time.

Regarding `O=[N+]([O-])/C(Cl)=C(/C(Cl)=C(Cl)Cl)N1CCCCC1`, the TGI in the assay with A498 renal came out at 33.4 µM; with DU-145 prostate, 27 µM; with HL-60(TB) leukemia, 4.83 µM; with HOP-62 NSCLC, 40.8 µM; in the assay on HOP-92 NSCLC it was 30.2 µM; in the assay on HS 578T breast it was 64.4 µM. For the same compound, the TGI was 41.6 µM in the assay on MDA-MB-231 breast, 29.2 µM with OVCAR-5 ovarian, 22.2 µM with OVCAR-8 ovarian and 30.3 µM in the assay on SK-MEL-28 melanoma.

`Clc1cc(C(c2cc(Cl)sc2Cl)c2cc(Cl)sc2Cl)c(Cl)s1`: the TGI in the assay with A498 renal, in the assay on DU-145 prostate, with HL-60(TB) leukemia, in the assay on HOP-62 NSCLC, in the assay with HOP-92 NSCLC and in the assay with HS 578T breast was greater than 100 µM in each case. The TGI in the assay with MDA-MB-231 breast, in the assay on OVCAR-5 ovarian, in the assay on OVCAR-8 ovarian and in the assay on SK-MEL-28 melanoma was greater than 100 µM throughout.

As to `COc1ccc2c(c1)-c1c(c3cc(OC)ccc3n1CCN(C)C)CC2`, the TGI is 24.1 µM in the assay with A498 renal; 26.7 µM with DU-145 prostate; 29.9 µM with HOP-62 NSCLC; 27.7 µM with HOP-92 NSCLC; 28 µM with HS 578T breast; 28.2 µM in the assay on MDA-MB-231 breast. Further, the TGI in the assay with OVCAR-5 ovarian was 29.9 µM; in the assay with OVCAR-8 ovarian, 32.6 µM; in the assay with SK-MEL-28 melanoma it was 30.4 µM.

`CN(C)CCCNc1cc(O)c2c(c1O)C(=O)c1ccccc1C2=O`: the TGI amounted to 37 µM with A498 renal; 28 µM with DU-145 prostate; 23.3 µM in the assay on HOP-62 NSCLC; 29.6 µM in the assay with HOP-92 NSCLC; 50.2 µM in the assay on HS 578T breast; 27.6 µM in the assay on MDA-MB-231 breast. Also, the TGI in the assay with OVCAR-5 ovarian was 33.7 µM; with OVCAR-8 ovarian it was 30.5 µM; in the assay on SK-MEL-28 melanoma, 31 µM.

In the case of `CC(O)CNC1=CC(=O)C(=O)c2ccccc21` (centres undefined), the TGI with A498 renal was determined as 62.9 µM; in the assay with DU-145 prostate it was 29.1 µM; in the assay with HL-60(TB) leukemia it was 84.4 µM; with HOP-62 NSCLC it was 32.4 µM; with HOP-92 NSCLC, 53.3 µM; in the assay on HS 578T breast it was 61.8 µM. For the same compound, the results for the TGI with MDA-MB-231 breast, in the assay with OVCAR-5 ovarian and in the assay on SK-MEL-28 melanoma were 73.6 µM, 35.6 µM and 35 µM, respectively.

For `CCN(CC)c1ccc(NC(=S)NN(C)C)cc1`, the TGI in the assay on A498 renal, in the assay with DU-145 prostate, in the assay on HL-60(TB) leukemia, with HOP-62 NSCLC, with HOP-92 NSCLC and in the assay with HS 578T breast was greater than 10 µM throughout. Further, the TGI with MDA-MB-231 breast, in the assay on OVCAR-8 ovarian and in the assay on SK-MEL-28 melanoma was greater than 10 µM throughout.

For the compound `Nc1c(S(N)(=O)=O)cc(S(N)(=O)=O)cc1S(N)(=O)=O`, the TGI in the assay with A498 renal, in the assay with DU-145 prostate, in the assay with HOP-62 NSCLC, in the assay with HOP-92 NSCLC, in the assay on HS 578T breast and with MDA-MB-231 breast was greater than 100 µM throughout. Further, the concentration for total growth inhibition (TGI) in the assay on OVCAR-5 ovarian, with OVCAR-8 ovarian and in the assay on SK-MEL-28 melanoma was greater than 100 µM each time.
